Read-outs that look alike come from different tables or passages of the source.
Legend:
[1] = molecular target: T1, MMP-1 (Homo sapiens, UniProt P03956); settings: isolated enzyme, fluorometric assay; cited from earlier work
T1 construct: purchased Merck Millipore 444208
T1 sequence (P03956 100-469): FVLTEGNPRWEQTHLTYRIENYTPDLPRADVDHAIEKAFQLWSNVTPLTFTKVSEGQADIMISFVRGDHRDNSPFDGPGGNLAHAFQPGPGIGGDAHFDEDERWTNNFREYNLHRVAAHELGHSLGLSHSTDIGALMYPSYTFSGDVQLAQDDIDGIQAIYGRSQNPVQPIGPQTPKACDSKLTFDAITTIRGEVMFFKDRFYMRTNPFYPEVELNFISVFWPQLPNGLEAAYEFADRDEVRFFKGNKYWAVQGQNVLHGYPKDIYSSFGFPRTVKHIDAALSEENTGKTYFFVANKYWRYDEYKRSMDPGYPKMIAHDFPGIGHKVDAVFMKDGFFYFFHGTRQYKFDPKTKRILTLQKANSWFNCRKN

[2] = tested on: SARS-CoV-2; assay: Plaques analysis (plaque dimension on Vero E6 cells); settings: Vero E6 cells infected with supernatants of treated Calu-3 cells; mean diameter of 10 plaques
Protocol: In order to assess the levels of infective SARS-CoV-2 released by treated or untreated cells, a plaque assay was performed. Vero E6 were seeded in 12-well plates and infected with serial dilution (10-fold) of the supernatants derived from treated and infected Calu-3 cells. Plaques were visible five days after infection, then cells were methanol-fixed, stained with crystal violet (0.1%) and plaques were manually counted [26] (microscope NeXcope NE620). The experiments were run in triplicate.
After crystal violet (0.1%) staining for antiviral activity assessment, plaques forming unit were identified and measured in size. Dimension of plaques derived by cytopathic effect of SARS-CoV-2 in Vero E6 cells was evaluated by microscopy (NeXcope NE620). For each well, 5 different fields were manually selected, and at least 10 plaques for each condition were identified and measured using NeXcope visualization software (Capture V.2.0) and reported as mean diameter (mm) ± SD.

[3] = tested on: SARS-CoV-2; assay: microbe, parasite or virus in culture; format: cell-based; settings: for EC50: Severe acute respiratory syndrome coronavirus 2, Calu-3
[4] = tested on: ACE2 expression on Calu-3 cell surface; assay: ACE2 immunofluorescence assay on Calu-3 cell surface; format: cell-based, human; settings: Calu-3 cells; for ACE2 expression on cell membranes (immunofluorescence): 25 µM, 24 h and 48 h, compared to untreated
Protocol: Calu-3 cells were incubated with a specific antibody against human angiotensin-converting enzyme 2 (ACE2) (SN0754 Thermo Fisher; Italy) as previously reported, followed by incubation with the FITC goat antirabbit IgG (H + L) secondary antibody (Thermo Fisher, Milan, Italy). Immunofluorescence was observed by fluorescence microscopy (Nikon Eclipse TE2000S, Milan, Italy). DNA was stained using DAPI (Thermo Fisher, Milan, Italy) to identify cell nuclei and reported as relative fluorescence units (RFU) compared to untreated control sample, by immunofluorescence quantification derived by the analysis of 5 different images derived by biological replicates, using Qupath software. In Brief, for each condition, the percentage of ACE2-positive stained cells was obtained considering the total DAPI-stained nuclei as 100% and then normalized on untreated control sample result and reported as fold difference value.
Considering the role of ACE2 receptor in viral entry into host cells, and the ability of ADAM17 to shed it from cell surface, we analyzed ACE2 expression on Calu-3 cell surface by immunofluorescence after 24 and 48 h of treatment with the three compounds, at the concentration of 25 µM (Fig. 4 and supplementary Figure S1).

[5] = MTT assay for cell viability; format: cell-based; settings: human, Calu-3 cells, read-out: CC50 (cytotoxic concentration 50%)
[6] = molecular target: T2, MMP-2 (Homo sapiens, UniProt P08253); assay: Fluorometric enzyme inhibition assay, MMP-2; format: biochemical; settings: isolated enzyme
T2 construct: purchased Merck Millipore PF037
T2 sequence (P08253 110-660): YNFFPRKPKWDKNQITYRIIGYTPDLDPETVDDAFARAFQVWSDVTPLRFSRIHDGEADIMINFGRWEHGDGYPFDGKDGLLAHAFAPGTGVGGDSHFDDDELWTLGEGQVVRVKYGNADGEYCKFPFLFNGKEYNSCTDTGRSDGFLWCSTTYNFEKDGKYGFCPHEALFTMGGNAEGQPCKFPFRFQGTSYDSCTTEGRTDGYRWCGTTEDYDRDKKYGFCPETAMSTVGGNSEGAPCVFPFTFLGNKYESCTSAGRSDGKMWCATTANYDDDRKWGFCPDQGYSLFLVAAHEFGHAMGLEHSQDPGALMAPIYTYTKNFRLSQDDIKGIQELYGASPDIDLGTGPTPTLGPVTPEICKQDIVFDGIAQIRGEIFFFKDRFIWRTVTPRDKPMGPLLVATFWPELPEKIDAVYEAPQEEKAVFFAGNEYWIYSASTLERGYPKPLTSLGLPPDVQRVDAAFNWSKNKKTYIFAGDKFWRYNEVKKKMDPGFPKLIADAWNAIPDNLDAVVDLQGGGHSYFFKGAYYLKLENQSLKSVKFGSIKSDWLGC

[7] = molecular target: T3, Recombinant human ADAM10 (Homo sapiens, UniProt O14672); assay: Fluorometric enzyme inhibition assay, ADAM10; format: biochemical; settings: isolated enzyme
T3 construct: purchased R&D Systems 936-AD
T3 sequence (O14672 214-748): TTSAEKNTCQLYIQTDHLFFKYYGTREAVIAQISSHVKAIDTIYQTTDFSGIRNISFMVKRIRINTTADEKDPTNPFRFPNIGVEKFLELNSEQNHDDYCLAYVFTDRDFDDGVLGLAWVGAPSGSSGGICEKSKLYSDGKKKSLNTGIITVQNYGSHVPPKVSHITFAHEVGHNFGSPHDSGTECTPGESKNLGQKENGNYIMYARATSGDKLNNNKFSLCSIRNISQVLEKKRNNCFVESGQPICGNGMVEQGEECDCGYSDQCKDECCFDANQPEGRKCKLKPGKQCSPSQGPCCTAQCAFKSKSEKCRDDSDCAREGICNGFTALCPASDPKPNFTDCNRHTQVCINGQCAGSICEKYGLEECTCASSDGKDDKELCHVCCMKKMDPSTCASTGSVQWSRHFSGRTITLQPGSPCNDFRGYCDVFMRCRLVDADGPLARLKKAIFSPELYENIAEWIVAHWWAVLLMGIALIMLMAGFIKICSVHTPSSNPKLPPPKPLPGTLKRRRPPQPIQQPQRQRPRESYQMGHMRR

[8] = molecular target: T4, recombinant human ADAM17 (Homo sapiens, UniProt P78536); assay: Fluorometric enzyme inhibition assay, ADAM17; format: biochemical; settings: isolated enzyme
T4 construct: purchased Merck Millipore PF133

[9] = molecular target: T5, MMP-9 (Homo sapiens, UniProt P14780); assay: Fluorometric enzyme inhibition assay, MMP-9; format: biochemical; settings: isolated enzyme
T5 construct: purchased Merck Millipore PF038

[10] = molecular target: T6, Recombinant human MMP-14 catalytic domain (Homo sapiens, UniProt P50281); assay: Fluorometric enzyme inhibition assay, MMP-14; format: biochemical; settings: isolated enzyme
T6 construct: Recombinant human MMP-14 catalytic domain was a kind gift of Prof; Gillian Murphy; gift of Prof; Gillian Murphy (Department of Oncology, University of Cambridge, UK)

[11] = molecular target: T1, MMP-1; assay: Fluorometric enzyme inhibition assay, MMP-1; format: biochemical; settings: isolated enzyme
[12] = tested on: SARS-CoV-2; format: cell-based
[13] = tested on: sALCAM release; set-up: method as in PMID 24044434; settings: ovarian cancer cell lines; cited from earlier work
[14] = tested on: SARS-CoV-2; format: cell-based; remark: listed apart in the source
[15] = tested on: CD16 shedding; set-up: method as in PMID 28192188; settings: 30 µM; PBMC co-cultured with hepatitis C virus-infected HuH7.5 cells; cited from earlier work
[16] = using CC50 values after 48 h of treatment

T4 sequence (P78536 215-824): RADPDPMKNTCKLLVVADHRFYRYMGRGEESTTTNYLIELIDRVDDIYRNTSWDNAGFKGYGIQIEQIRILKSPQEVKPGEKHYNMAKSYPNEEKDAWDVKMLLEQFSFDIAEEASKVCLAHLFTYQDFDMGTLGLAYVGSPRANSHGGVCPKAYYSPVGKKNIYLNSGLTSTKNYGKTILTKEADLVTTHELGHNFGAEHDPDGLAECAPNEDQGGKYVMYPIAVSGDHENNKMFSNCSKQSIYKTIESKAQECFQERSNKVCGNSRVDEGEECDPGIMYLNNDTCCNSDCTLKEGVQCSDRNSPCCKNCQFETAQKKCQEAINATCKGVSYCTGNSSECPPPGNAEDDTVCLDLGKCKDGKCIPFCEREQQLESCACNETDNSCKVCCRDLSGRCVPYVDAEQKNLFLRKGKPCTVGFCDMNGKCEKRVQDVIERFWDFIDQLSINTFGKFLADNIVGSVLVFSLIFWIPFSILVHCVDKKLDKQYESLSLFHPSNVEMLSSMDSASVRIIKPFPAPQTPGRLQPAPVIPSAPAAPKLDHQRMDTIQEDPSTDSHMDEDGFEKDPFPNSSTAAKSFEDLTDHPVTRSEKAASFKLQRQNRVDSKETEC
T5 sequence (P14780 107-707 limits assumed): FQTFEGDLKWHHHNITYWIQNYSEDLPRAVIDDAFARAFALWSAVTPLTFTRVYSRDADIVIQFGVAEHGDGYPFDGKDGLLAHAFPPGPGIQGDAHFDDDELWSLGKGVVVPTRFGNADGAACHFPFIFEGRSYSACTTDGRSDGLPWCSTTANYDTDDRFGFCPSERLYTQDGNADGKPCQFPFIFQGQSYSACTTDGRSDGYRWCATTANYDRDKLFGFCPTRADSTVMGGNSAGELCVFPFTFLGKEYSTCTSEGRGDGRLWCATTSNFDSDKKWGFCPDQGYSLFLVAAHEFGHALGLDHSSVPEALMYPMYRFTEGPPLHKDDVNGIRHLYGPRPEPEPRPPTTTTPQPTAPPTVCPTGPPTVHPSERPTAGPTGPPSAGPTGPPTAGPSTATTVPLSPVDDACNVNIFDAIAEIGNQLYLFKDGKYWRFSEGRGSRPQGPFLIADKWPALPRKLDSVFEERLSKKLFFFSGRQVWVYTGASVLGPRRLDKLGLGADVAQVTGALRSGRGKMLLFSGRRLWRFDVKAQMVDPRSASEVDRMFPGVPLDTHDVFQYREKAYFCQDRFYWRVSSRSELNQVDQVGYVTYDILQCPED

| Structure (SMILES) | IC50 [1] | Plaque dimension (mm ± SD) [2] | EC50 [3] | SI (selectivity index, CC50/EC50) [3, 16] | ACE2 expression on cell membranes (immunofluorescence) [4] | CC50 at 24 h [5] | CC50 at 48 h [5] | other results |
| --- | --- | --- | --- | --- | --- | --- | --- | --- |
| O=C(NCCC[C@@H](NS(=O)(=O)c1ccc(OCc2cc(Br)cc(Br)c2)cc1)C(=O)NO)c1cccc(C(=O)NCCC[C@@H](NS(=O)(=O)c2ccc(OCc3cc(Br)cc(Br)c3)cc2)C(=O)NO)c1 [Compound 1] | > 200 µM | 0.53± 0.19 mm | 12.7 µM | 8.91 | increased ACE2 expression | 113 µM | 113 µM | – |
| CC(=O)N[C@@H]1[C@@H](O)[C@H](O)[C@@H](CO)O[C@H]1NC(=S)NCCOCCOCCOCCOCCC(=O)NCCC[C@@H](NS(=O)(=O)c1ccc(OCc2cc(Br)cc(Br)c2)cc1)C(=O)NO [Compound 2, 1-(((2R, 3R, 4R, 5 S, 6R)-3-acetamido-4,5-dihydroxy-6-(hydroxymethyl)tetrahydro-2 H-pyran-2-yl)amino)-N-((R)-4-(4-((3,5-dibromobenzyl)oxy)phenylsulfonamido)-5-(hydroxyamino)-5-oxopentyl)-1-thioxo-5,8, 11, 14-tetraoxa-2-azaheptadecan-17-amide] | – | 0.61± 0.23 mm | 13.6 µM | 5.29 | – | 67.2 µM | 72 µM | IC50 [6]: 0.32 µM; IC50 [7]: 0.81 µM; IC50 [8]: 0.0055 µM; IC50 [9]: 1.77 µM; IC50 [10]: 70.7 µM; IC50 [11]: > 200 µM |
| NC(=O)NCCC[C@@H](NS(=O)(=O)c1ccc(OCc2cc(Br)cc(Br)c2)cc1)C(=O)NO [JG26] | > 500 µM | 0.42± 0.2 mm | 8.1 µM | – | increased ACE2 expression | 77.9 µM | 107 µM | LR vs DMSO (viral load logarithmic reduction), RT-qPCR [12]: 2.37; block of sALCAM release [13]: able to block sALCAM release; LR vs DMSO (viral load logarithmic reduction), plaque assay [14]: 1.44; effect on viral infection at lower concentration [14]: did not show any effect; SI (selectivity index, CC50/EC50) [3]: 13.23; reduction of CD16 shedding [15]: active |
| CCCCCCCCCCCCCC(=O)O[C@@H]1[C@@H](C)[C@@]2(O)[C@@H](C=C(CO)C[C@]3(O)C(=O)C(C)=C[C@@H]23)[C@@H]2C(C)(C)[C@]12OC(C)=O [PMA, Phorbol 12-myristate 13-acetate, reference compound] | – | 0.82± 0.32 mm | – | – | – | – | – | effect on SARS-CoV-2 infection (plaque assay and genome titration) [14]: induced a sensible SARS-CoV-2 infection progression; ACE2 expression (immunofluorescence), ADAM17 inductor control ([4]; PMA control, compared to untreated samples): slightly decreased ACE2 expression |

From paper PMC11743353 (Pharmacological Reports, 2024)
